Experimental data taken from patent US20240285653A1, “COMPOSITIONS AND METHODS FOR TREATMENT AND PREVENTION OF DISEASES UTILIZING TIRILAZAD SALTS” (priority 2022, published 2024).
Read-outs that look alike come from different tables or passages of the source.

Test system: explant tissue from the dermoepidermal junction of the hoof
Format: cell-based
Method: An in vitro study was conducted to analyze the protective effects of tirilazad mesylate on cellular degeneration as a result of Bothrops alternatus snake venom as a model for laminitis. Explant tissue samples were obtained from the dermoepidermal junction of the hoof of the right forelimb under nervous system block without the need for euthanasia.
Under sterile conditions, laminar cuts (mini-explants) were made of each explant and the tissue washed with physiological solution. The mini-explants were pre-incubated for 5 hours with tirilazad and then for 24 hours with Bothrops venom. Culture medium was as follows: Dulbecco's […] (DMEM, GIBCO-Invitrogen) with 10% heat-inactivated fetal bovine serum (FBS, GIBCO-Invitrogen), L-Glutamine (29.2 mg/mL), Penicillin (10,000 units/mL), and Streptomycin (10,000 μg/mL, GIBCO-Invitrogen) as antibiotics.
Histopathology: Tissues were processed with classical histological techniques, e.g., cutting by microtome (Minot) and stained with hematoxylin-eosin (H-E) and Periodic Acid Schiff (PAS) stains.

[1] = Tirilazad 1 μM (5 hours pre-incubation) + venom 75 μg/ml (24 hours), listed as tirilazad
[2] = Tirilazad 1 μM alone, no venom, listed as tirilazad
[3] = Tirilazad 3 μM (5 hours pre-incubation) + venom 75 μg/ml (24 hours)
[4] = Tirilazad 3 μM alone, no venom, listed as tirilazad
[5] = Tirilazad 10 μM (5 hours pre-incubation) + venom 75 μg/ml (24 hours), listed as tirilazad
[6] = Tirilazad 10 μM alone, no venom
[7] = Tirilazad 10 μM alone, no venom, listed as tirilazad
[8] = Tirilazad 20 μM (5 hours pre-incubation) + venom 75 μg/ml (24 hours)
[9] = Tirilazad 20 μM alone, no venom

C[C@@H]1C[C@H]2[C@@H]3CCC4=CC(=O)C=C[C@]4(C)C3=CC[C@]2(C)[C@H]1C(=O)CN1CCN(c2cc(N3CCCC3)nc(N3CCCC3)n2)CC1 [Tirilazad, 16α-methyl-21-[4-[2,6-bis(1-pyrrolidinyl)-4-pyrimidinyl]-1-piperazinyl]pregna-1,4,9(11)-triene-3,20-dione]
Separation of Basement Membrane (Tirilazad 1 μM (5 hours pre-incubation) + venom 75 μg/ml (24 hours)): No
Cell Nuclei [1]: intense presence of altered epidermal cells
Pyknosis or Karyopyknosis [1]: nuclear pyknosis
Separation of Basement Membrane [1]: did not show separation of the basement membrane
Pyknosis or Karyopyknosis (Tirilazad 1 μM alone, no venom): No
Separation of Basement Membrane (Tirilazad 1 μM alone, no venom): No
Cell Nuclei [2]: epidermal cells were normal and showed preserved cytoplasmic and nuclear structure
Separation of Basement Membrane [2]: did not show separation of the basement membrane
Cell Nuclei [3]: intense presence of altered epidermal cells
Pyknosis or Karyopyknosis [3]: nuclear pyknosis predominating
Separation of Basement Membrane [3]: slight separation of the basement membrane
Separation of Basement Membrane (Tirilazad 3 μM alone, no venom): No
Cell Nuclei [4]: slight epidermal cytoplasmic and nuclear alteration
Separation of Basement Membrane [4]: did not show separation of the basement membrane
Separation of Basement Membrane (Tirilazad 10 μM (5 hours pre-incubation) + venom 75 μg/ml (24 hours)): No
Cell Nuclei [5]: Moderate presence of altered epidermal cells
Pyknosis or Karyopyknosis [5]: moderate nuclear pyknosis
Separation of Basement Membrane [5]: did not show separation of the basement membrane
Pyknosis or Karyopyknosis [6]: No
Separation of Basement Membrane [6]: No
Cell Nuclei [7]: epidermal cells were normal and showed preserved cytoplasmic and nuclear structure
Separation of Basement Membrane [7]: did not show separation of the basement membrane
Cell Nuclei [8]: intense presence of altered epidermal cells
Pyknosis or Karyopyknosis [8]: intense nuclear pyknosis
Separation of Basement Membrane [8]: intense separation of the basement membrane
Cell Nuclei [9]: epidermal cells were normal and showed preserved cytoplasmic and nuclear structure
Pyknosis or Karyopyknosis [9]: No
Separation of Basement Membrane [9]: intense separation of the basement membrane
Effect on cellular structure in hoof tissue (overall conclusion) (summary of the explant study): provides a protective and/or therapeutic effect on cellular structure in hoof tissue
